From patent US11352330B2, “Phenoxymethyl derivatives” (Hoffmann-La Roche Inc., priority 2015, dated 2022) come the findings set out here.

The assay deals with human ATX (Homo sapiens (Human), UniProt Q13822). In words: Human ATX enzyme inhibition assay (fluorescence quenching, MR121 substrate). It is filed as biochemical. As to conditions: human His-tagged ATX 30 nM, MR121 substrate 1 μM, 30° C. Summed up:
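Human His-tagged ATX (30 nM final) preincubated 15 min at 30 °C with serially diluted compounds in Tris buffer pH 8.0 with Ca2+, Mg2+ and 0.01% Triton X-100. MR121/tryptophan-labelled substrate analogue (1 μM final) then added for 15 min at 30 °C; cleavage read by fluorescence dequenching.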

One may read the IC50 as the concentration needed to halve the response being measured. Lower therefore signals inhibition by little substance.

For `Cn1c(COc2cc(Cl)c(C#N)cc2-c2cc(OCC(F)(F)F)ccc2F)n[nH]c1=O` [Example B98, 2-chloro-5-[2-fluoro-5-(2,2,2-trifluoroethoxy)phenyl]-4-[(4-methyl-5-oxo-1H-1,2,4-triazol-3-yl)methoxy]benzonitrile], the IC50 was 9 nM. This lies in the single-digit nanomolar range.

`Cc1cc(OCc2n[nH]c(=O)n2C)c(-c2ccc(Cl)cc2)cc1Cl` [Example B4] had a concentration for half-maximal inhibition (IC50) of 6 nM.

With `N#Cc1cc(-c2ccccc2)c(OCc2ccc(=O)[nH]n2)cc1Cl` [Example C12], the midpoint of inhibition, the IC50, lay at 3 nM.

Consider `Cc1cc(OCc2n[nH]c(=O)n2C)c(-c2cccc(Cl)n2)cc1Cl` [Example B19], for which the 50% inhibitory concentration (IC50) was 65 nM. This IC50 is about 22-fold higher than that of the molecule before.

`Cn1c(COc2cc(Cl)c(C#N)cc2-c2cccc(-c3cc[nH]n3)c2)n[nH]c1=O` [Example B34, 2-Chloro-4-[(4-methyl-5-oxo-1H-1,2,4-triazol-3-yl)methoxy]-5-[3-(H-pyrazol-3-yl)phenyl]benzonitrile] displayed an IC50 of 51 nM.

In turn, `COC(=O)c1ccc(C)c(-c2cc(Cl)c(C)cc2OCc2n[nH]c(=O)n2C)c1` [Example B49, Methyl 3-[5-chloro-4-methyl-2-[(4-methyl-5-oxo-1H-1,2,4-triazol-3-yl)methoxy]phenyl]-4-methylbenzoate] gave a 50% inhibitory concentration (IC50) of 8 nM.
